Among the data in PubChem BioAssay AID651630 (Sanford-Burnham Center for Chemical Genomics, 2012) are IC50 cytotoxicity (DAPI nuclear signal decrease) and IC50 values, retold here.

As usually defined, the IC50 is the concentration that inhibits the measured activity by half.

Calls of active or inactive are those of the source.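 Rule for the calls: active = lipid-stain IC50 at or below a set limit, with nuclear-stain toxicity IC50 at least five times higher; inactive = the rest.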 Some results are limits rather than exact numbers.

One assay concerns DAPI. Briefly: triacylglycerol accumulation inhibitor potency, dose response, cell-based, panel, Nile Red and DAPI fluorescence, H9c2 (AID 651630).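 Note: cells exposed to compound overnight before fixation and staining.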 The note with it: H9c2 cells, DAPI nuclear fluorescence (cytotoxicity counter-readout), oleic acid.
For the next assay, the system named is TAG. The assay is described as above. The note with it: H9c2 cells, Nile Red TAG fluorescence, oleic acid.

On to `COc1cc(-c2cc3nc(NCCOc4ccccc4)ccn3n2)cc(OC)c1OC`, for which the IC50 cytotoxicity (DAPI nuclear signal decrease) was > 25 µM (inactive) in the assay with DAPI (mean of runs), over 25 µM with DAPI (run 1) and over 25 µM with DAPI (run 2). Also, the IC50 was 18.9 µM (inactive) in the assay with TAG (mean of runs), 16.7 µM with TAG (run 1) and 21.2 µM with TAG (run 2).

With `Nc1ccccc1Nc1cccc(C(F)(F)F)c1`, the IC50 cytotoxicity (DAPI nuclear signal decrease) in the assay with DAPI (mean of runs) is > 25 µM (inactive); in the assay with DAPI (run 1), over 25 µM; in the assay on DAPI (run 2), over 25 µM. Also, the IC50 in the assay on TAG (mean of runs) is 11.2 µM; in the assay on TAG (run 1), 9.51 µM; in the assay on TAG (run 2), 12.9 µM.

Take `CN(C)CCNC=C(C(=O)Nc1ccc(Cl)cc1Cl)C(=O)Nc1ccc(Cl)cc1Cl`: the values for the IC50 cytotoxicity (DAPI nuclear signal decrease) with DAPI (run 1) and in the assay on DAPI (run 2) were 20.8 µM and over 25 µM, respectively. The IC50 in the assay on TAG (mean of runs) was 8.69 µM; with TAG (run 1), 8.01 µM; in the assay on TAG (run 2) it was 9.36 µM.

For `COc1ccc2sc(-c3ccc(S(C)(=O)=O)cc3)c(C#Cc3cncn3C)c2c1`, the IC50 cytotoxicity (DAPI nuclear signal decrease) with DAPI (mean of runs) was > 25 µM (inactive); with DAPI (run 1), over 25 µM; in the assay with DAPI (run 2) it was over 25 µM. Further, the IC50 with TAG (mean of runs) was > 25 µM (inactive); in the assay on TAG (run 1), over 25 µM; with TAG (run 2), over 25 µM.

For the molecule `O=C(Nc1ccc(-c2csc(Nc3cccc(C(F)(F)F)c3)n2)cc1)c1cccc(C(F)(F)F)c1`, the IC50 cytotoxicity (DAPI nuclear signal decrease) in the assay on DAPI (mean of runs) was > 25 µM (inactive); with DAPI (run 1), over 25 µM; in the assay on DAPI (run 2), over 25 µM. The IC50 was 6.44 µM with TAG (mean of runs), 5.94 µM in the assay with TAG (run 1) and 6.94 µM with TAG (run 2).

In the case of `C[C@H](O)C#Cc1ccc2c(c1)O[C@@H](CN(C)Cc1ccc(-c3ccccc3)cc1)[C@H](C)CN([C@@H](C)CO)S2(=O)=O`, the results for the IC50 cytotoxicity (DAPI nuclear signal decrease) with DAPI (mean of runs), in the assay on DAPI (run 1) and with DAPI (run 2) were > 25 µM (inactive), over 25 µM and over 25 µM, respectively. The figures for the IC50 in the assay on TAG (run 1) and in the assay on TAG (run 2) were over 25 µM and 17.9 µM, respectively.

For the molecule `CC(C)C[C@H]1C(=O)N2CCC[C@H]2[C@]2(O)O[C@](NC(=O)C3C=C4c5cccc6[nH]c(Br)c(c56)C[C@H]4N(C)C3)(C(C)C)C(=O)N12` (some centres undefined), the IC50 cytotoxicity (DAPI nuclear signal decrease) with DAPI (mean of runs) was > 25 µM (inactive); in the assay on DAPI (run 1) it was over 25 µM; with DAPI (run 2), over 25 µM. For the same molecule, the IC50 in the assay with TAG (mean of runs) is 6.4 µM; in the assay with TAG (run 1), 5.42 µM; in the assay with TAG (run 2), 7.37 µM.

As for `Fc1cccc(Nc2nc(-c3ccncc3)nc3ccccc23)c1`, the IC50 cytotoxicity (DAPI nuclear signal decrease) is > 25 µM (inactive) in the assay on DAPI (mean of runs), over 25 µM in the assay with DAPI (run 1) and over 25 µM in the assay on DAPI (run 2). For the same molecule, the IC50 was > 25 µM (inactive) in the assay on TAG (mean of runs), over 25 µM with TAG (run 1) and over 25 µM in the assay on TAG (run 2).

Consider `Nc1ncnc2c1ncn2C1C=C(CO)C(O)C1O` (centres undefined), for which the IC50 cytotoxicity (DAPI nuclear signal decrease) with DAPI (mean of runs) was > 25 µM (inactive); in the assay on DAPI (run 1) it was over 25 µM; in the assay with DAPI (run 2), over 25 µM. The values for the IC50 with TAG (mean of runs), in the assay with TAG (run 1) and with TAG (run 2) were 12.5 µM, 11.4 µM and 13.7 µM, respectively.

Turning to `CCCCCC(/C=N/Nc1ccc(S(=O)(=O)N2CCOCC2)cc1[N+](=O)[O-])=C\c1ccccc1`, the figures for the IC50 cytotoxicity (DAPI nuclear signal decrease) in the assay on DAPI (mean of runs), with DAPI (run 1) and in the assay with DAPI (run 2) were > 25 µM (inactive), over 25 µM and over 25 µM, respectively. The figures for the IC50 with TAG (mean of runs), in the assay on TAG (run 1) and in the assay on TAG (run 2) were 14.4 µM, 12.8 µM and 15.9 µM, respectively.

On to `CC(=O)c1ccc(Oc2cc(C)nc(-n3nc(C)cc3C)n2)cc1`, for which the IC50 cytotoxicity (DAPI nuclear signal decrease) is > 25 µM (inactive) in the assay on DAPI (mean of runs), over 25 µM in the assay with DAPI (run 1) and over 25 µM in the assay with DAPI (run 2). The IC50 in the assay with TAG (mean of runs) was 11.5 µM; with TAG (run 1) it was 10.4 µM; in the assay with TAG (run 2), 12.5 µM.

On to `O[C@H]1CN(CC2CCCCC2)[C@@H](c2ccc(Cl)cc2)C[C@@H]1n1cc(-c2ccc(F)cc2)nn1`, for which the IC50 cytotoxicity (DAPI nuclear signal decrease) was > 25 µM (inactive) in the assay with DAPI (mean of runs), over 25 µM in the assay with DAPI (run 1) and over 25 µM with DAPI (run 2). Moreover, the IC50 in the assay on TAG (run 1) was 18.5 µM; in the assay with TAG (run 2) it was over 25 µM.

As for `CCCOC(=O)c1ccc(NC(=O)CCOc2ccccc2)cc1`, the IC50 cytotoxicity (DAPI nuclear signal decrease) is > 25 µM (inactive) in the assay on DAPI (mean of runs), over 25 µM in the assay with DAPI (run 1) and over 25 µM in the assay on DAPI (run 2). Moreover, the values for the IC50 with TAG (mean of runs), in the assay on TAG (run 1) and with TAG (run 2) were 21.5 µM (inactive), 18.2 µM and 24.7 µM, respectively.

With `COc1ccc(NS(=O)(=O)c2cccc(C(=O)N/N=C/c3cn(-c4ccccc4)nc3-c3ccccc3)c2)cc1`, the IC50 cytotoxicity (DAPI nuclear signal decrease) in the assay with DAPI (mean of runs) was > 25 µM (inactive); in the assay with DAPI (run 1), over 25 µM; in the assay with DAPI (run 2), over 25 µM. Also, the IC50 in the assay on TAG (mean of runs) was 8.79 µM; with TAG (run 1), 7.63 µM; in the assay with TAG (run 2), 9.96 µM.

Consider `CC(C)(C)NCCC(O)c1cc(C(F)(F)F)nc2c(C(F)(F)F)cccc12` (centres undefined), for which the results for the IC50 cytotoxicity (DAPI nuclear signal decrease) with DAPI (mean of runs), with DAPI (run 1) and in the assay on DAPI (run 2) were > 25 µM (inactive), over 25 µM and over 25 µM, respectively. The IC50 in the assay with TAG (mean of runs) was 11.2 µM; with TAG (run 1) it was 11.5 µM; with TAG (run 2) it was 11 µM.

With `CCOC(=O)c1c(C)[nH]c(C(=O)OCC(=O)NCCc2ccc(OCC)c(OCC)c2)c1C`, the IC50 cytotoxicity (DAPI nuclear signal decrease) with DAPI (mean of runs) is > 25 µM (inactive); in the assay on DAPI (run 1), over 25 µM; in the assay on DAPI (run 2), over 25 µM. Besides, the values for the IC50 with TAG (mean of runs), in the assay with TAG (run 1) and in the assay on TAG (run 2) were > 25 µM (inactive), over 25 µM and over 25 µM, respectively.

`C[C@@H]1CN([C@H](C)CO)C(=O)c2c(c3ccccc3n2C)-c2ccccc2CO[C@H]1CN(C)Cc1ccc(Oc2ccccc2)cc1`: the IC50 cytotoxicity (DAPI nuclear signal decrease) in the assay with DAPI (run 1) is over 25 µM; with DAPI (run 2) it was 20 µM. For the same molecule, the IC50 in the assay with TAG (mean of runs) was > 25 µM (inactive); in the assay on TAG (run 1), over 25 µM; in the assay on TAG (run 2) it was over 25 µM.

As for `N#CCC(=O)N/N=C/c1cn(Cc2ccc(Cl)c(Cl)c2)c2ccccc12`, the results for the IC50 cytotoxicity (DAPI nuclear signal decrease) in the assay with DAPI (mean of runs), in the assay on DAPI (run 1) and in the assay with DAPI (run 2) were > 25 µM (inactive), over 25 µM and over 25 µM, respectively. The results for the IC50 with TAG (run 1) and in the assay with TAG (run 2) were 19.9 µM and over 25 µM, respectively.

For the molecule `CC1(c2ccccc2)CC(C)(C)N(C(=O)c2cc([N+](=O)[O-])cc([N+](=O)[O-])c2)c2ccccc21` (centres undefined), the IC50 cytotoxicity (DAPI nuclear signal decrease) with DAPI (mean of runs) was > 25 µM (inactive); in the assay on DAPI (run 1), over 25 µM; in the assay on DAPI (run 2), over 25 µM. The IC50 with TAG (mean of runs) is 9.21 µM; in the assay with TAG (run 1), 10.4 µM; with TAG (run 2) it was 7.99 µM.

In the case of `COc1cc(OC)c2c(-c3ccccc3)cc(=O)oc2c1C(CCN1CCN(c2ccccc2)CC1)c1ccc(N(C)C)cc1` (centres undefined), the IC50 cytotoxicity (DAPI nuclear signal decrease) in the assay on DAPI (mean of runs) is > 25 µM (inactive); in the assay with DAPI (run 1) it was over 25 µM; with DAPI (run 2) it was over 25 µM. Also, the results for the IC50 in the assay on TAG (mean of runs), with TAG (run 1) and with TAG (run 2) were 6.35 µM, 6.75 µM and 5.95 µM, respectively.

With `C=CCn1c(N)c(C(=O)Nc2ccccc2)c2nc3ccccc3nc21`, the IC50 cytotoxicity (DAPI nuclear signal decrease) in the assay on DAPI (mean of runs) was > 25 µM (inactive); with DAPI (run 1), over 25 µM; in the assay with DAPI (run 2), over 25 µM. Moreover, the values for the IC50 with TAG (mean of runs), with TAG (run 1) and with TAG (run 2) were 6.11 µM, 6.18 µM and 6.04 µM, respectively.

Consider `CN(C)CCCn1c(=O)n(CCc2ccccc2)c(=O)c2c3c(sc21)CCCCC3`, for which the figures for the IC50 cytotoxicity (DAPI nuclear signal decrease) with DAPI (run 1) and in the assay with DAPI (run 2) were over 25 µM and 16.2 µM, respectively. For the same molecule, the IC50 was > 25 µM (inactive) in the assay with TAG (mean of runs), over 25 µM in the assay with TAG (run 1) and over 25 µM in the assay with TAG (run 2).

Regarding `COCCNc1nc(NCc2ccc(NC(C)=O)cc2)c2sc(-c3ccccc3)cc2n1`, the IC50 cytotoxicity (DAPI nuclear signal decrease) in the assay with DAPI (run 1) was 19.1 µM; in the assay on DAPI (run 2) it was over 25 µM. Further, the figures for the IC50 with TAG (mean of runs), in the assay on TAG (run 1) and with TAG (run 2) were > 25 µM (inactive), over 25 µM and over 25 µM, respectively.

Regarding `C=CC[C@@H](CC(=O)N(CCO)Cc1ccccc1)C(=O)N[C@H](COC(=O)[C@@H](CC=C)Cc1ccc(F)cc1)Cc1ccccc1`, the IC50 cytotoxicity (DAPI nuclear signal decrease) in the assay with DAPI (mean of runs) was > 25 µM (inactive); with DAPI (run 1), over 25 µM; in the assay with DAPI (run 2), over 25 µM. Also, the IC50 in the assay with TAG (mean of runs) was 6.97 µM; in the assay on TAG (run 1), 7.28 µM; with TAG (run 2), 6.67 µM.

Consider `O=C(Nc1sc2c(c1-c1nc3ccccc3[nH]1)CCCC2)C1CCCC1`, for which the IC50 cytotoxicity (DAPI nuclear signal decrease) with DAPI (mean of runs) was > 25 µM (inactive); in the assay on DAPI (run 1), over 25 µM; in the assay on DAPI (run 2), over 25 µM. Also, the IC50 in the assay with TAG (mean of runs) was 7.22 µM; in the assay on TAG (run 1) it was 4.9 µM; with TAG (run 2), 9.54 µM.

Consider `CC1CC2(C)Oc3ccccc3CC2C(C)C1CNCCCN(C)C` (centres undefined), for which the IC50 cytotoxicity (DAPI nuclear signal decrease) with DAPI (mean of runs) was 18.9 µM (inactive); in the assay with DAPI (run 1), 18.4 µM; in the assay on DAPI (run 2), 19.5 µM. The results for the IC50 in the assay on TAG (mean of runs), with TAG (run 1) and with TAG (run 2) were > 25 µM (inactive), over 25 µM and over 25 µM, respectively.
